Measured values taken from patent publication US8129425B2, “Small organic molecule regulators of cell proliferation” (Curis, Inc., priority 2000, dated 2012).

Tested on: hedgehog-responsive Gli-Luc reporter-construct
Assay: Gli-Luc hedgehog pathway reporter assay in [10T1/2(s12)] cells
Type: cell-based, murine
Settings: Table 1
Protocol: To measure the hedgehog agonist activity of compounds, we used [10T1/2(s12)] cells containing the hedgehog-responsive Gli-Luc reporter-construct. In each MTP (MicroTiter Plate; 96-well plate), 10,000-20,000 cells were plated per well, in full media (10% FBS). After about 24-48 hr, plates were switched to low-serum media (=0.5%. FBS). Subsequently, a test compound was added at 1-5 μM in the presence or absence of octyl-hedgehog (see below). After another 24 hr, the media from the MTPs was discarded and replaced with luciferase assay-mix, containing lysis-buffer with luciferase substrate. The plates were incubated at RT for about 15-30 min and read in a luminometer.
Plates were incubated for 48 hr before switching to low-serum. Compounds were screened at 1-2 μM in the presence of Hh protein (0.01 μg/ml; EC30=about 30% of max-induced activity).
Plates were incubated for 24 hr before switching to low-serum. Compounds were screened at 5 μM without adding Hh protein.
From Screen A, we identified hits identified in FIGS. 32 and 33. The 1,4-diaminocyclohexane subunit of the compounds of FIG. 32 which include this moiety have the two amino substituents disposed in a trans-relationship, e.g., both substituents equatorial on the cyclohexane subunit. These hits were confirmed in Screen B. The data shown in FIGS. 34a and 34b essentially involved dosing the two compounds in both assays (Gli-Luc & SV-Luc).
The data from the Gli-Luc assay is converted to percent activity where full activity with Hh protein is set at 100% (FIG. 35; Table 1). […] Furthermore, the compounds show a more striking induction in the presence of hedgehog (EC50=0.2-0.3 μM, ECmax=70-90% of max induced activity with Hh protein), indicating a synergy between the compounds and Hh protein, consistent with the compounds serving as agonists for the hedgehog pathway.

SMILES	EC50
COc1ccc(CN(C(=O)c2sc3ccccc3c2Cl)[C@H]2CC[C@H](N)CC2)cc1-c1cccnc1 [D′]	< 10000 nM
CN[C@H]1CC[C@H](N(Cc2ccc(OC)c(-c3ccc(C#N)cc3)c2)C(=O)c2sc3ccc(F)c(F)c3c2Cl)CC1 [D′′′]	< 50 nM
CN[C@H]1CC[C@H](N(Cc2cc(-c3ccco3)cs2)C(=O)c2sc3ccccc3c2Cl)CC1 [P′′]	< 10000 nM
CN[C@H]1CC[C@H](N(Cc2cccc(-c3ccc(S(=O)(=O)NC(C)=O)s3)c2)C(=O)c2sc3ccccc3c2Cl)CC1 [O′′]	< 1000 nM
COc1ccc(CN(C(=O)c2sc3ccccc3c2Cl)[C@H]2CC[C@H](N)CC2)cc1-c1ccc(F)cc1 [E′]	< 10000 nM
COc1ccc(CN(C(=O)c2sc3ccccc3c2Cl)C2CCC(N)CC2)cc1-c1ncccn1 (stereo not shown) [I]	> 10000 nM
CN[C@H]1CC[C@H](N(Cc2cncc(-c3ccc(S(N)(=O)=O)s3)c2)C(=O)c2sc3ccccc3c2Cl)CC1 [K′′′]	< 5000 nM
CN[C@H]1CC[C@H](N(Cc2cc(-c3ccc(C#N)cc3)cs2)C(=O)c2sc3ccccc3c2Cl)CC1 [G′′]	< 100 nM
COc1ccc(CN(C(=O)c2sc3ccccc3c2Cl)[C@H]2CC[C@H](N(C)C)CC2)cc1-c1ccc(C#N)cc1 [G′]	< 10000 nM
COc1ccc(CN(C(=O)c2sc3ccccc3c2Cl)[C@H]2CC[C@H](N)CC2)cc1-c1ccccc1 [F′]	< 10000 nM
COc1ccc(CN(C(=O)c2sc3ccccc3c2Cl)C2CCC(N)CC2)cc1-c1ccc(C(C)=O)cc1 (stereo not shown) [H]	< 1000 nM
CN[C@H]1CC[C@H](N(Cc2cccc(-c3ccc(C#N)cc3)c2)C(=O)c2sc3ccccc3c2Cl)CC1 [I′]	< 1000 nM
CNC1CCC(N(Cc2cccc(-c3ccc(C)nc3)c2)C(=O)c2sc3ccccc3c2Cl)CC1 (stereo not shown) [N]	< 1000 nM
CN[C@H]1CC[C@H](N(Cc2cc(Cl)nc(Cl)c2)C(=O)c2sc3ccccc3c2Cl)CC1 [T′′′]	< 1000 nM
CN[C@H]1CC[C@H](N(Cc2cccc(-c3ccc(N(C)C)nc3)c2)C(=O)c2sc3ccccc3c2Cl)CC1 [H′′]	< 100 nM
COc1ccc(CN(C(=O)c2sc3ccccc3c2Cl)[C@H]2CC[C@H](N)CC2)cc1Br [H′]	> 10000 nM
CN[C@H]1CC[C@H](N(Cc2cccc(-c3ccncc3)c2)C(=O)c2sc3ccccc3c2Cl)CC1 [H′′′]	< 50 nM
CN[C@H]1CC[C@H](N(Cc2ccc3c(c2)CCO3)C(=O)c2sc3ccccc3c2Cl)CC1 [E′′]	< 10000 nM
CN[C@H]1CC[C@H](N(Cc2ccc(OC)c(-c3ccc(C#N)cc3)c2)C(=O)c2sc3cccc(C)c3c2Cl)CC1 [O′′′]	< 1000 nM
NC1CCC(N(Cc2cc(-c3ccc(F)cc3)cs2)C(=O)c2sc3ccccc3c2Cl)CC1 (stereo not shown) [J]	< 1000 nM
CN[C@H]1CC[C@H](N(Cc2ccccn2)C(=O)c2sc3c(F)ccc(F)c3c2Cl)CC1 [U′′′]	< 1000 nM
COc1ccc(CN(C(=O)c2sc3ccccc3c2Cl)[C@H]2CC[C@H](N)CC2)cc1-c1ccsc1 [C′]	< 10000 nM
COc1ccc(CN(C(=O)c2sc3ccccc3c2Cl)C2CCC(N)CC2)cc1-c1cccc(C#N)c1 (stereo not shown) [X]	< 10000 nM

SMILES	EC50
CN[C@H]1CC[C@H](N(Cc2cc(-c3ccncc3)cs2)C(=O)c2sc3c(F)ccc(F)c3c2Cl)CC1 [W′′]	< 5 nM
CNC1CCC(N(Cc2cccc(-c3ccccn3)c2)C(=O)c2sc3ccccc3c2Cl)CC1 (stereo not shown) [Q]	< 1000 nM
CN[C@H]1CC[C@H](N(Cc2ccnc(-c3ccc(C#N)cc3)c2)C(=O)c2sc3ccccc3c2Cl)CC1 [M′′′]	< 500 nM
CNC1CCC(N(Cc2ccc(OC)c(I)c2)C(=O)c2sc3ccccc3c2Cl)CC1 (stereo not shown) [U]	< 10000 nM
CN[C@H]1CC[C@H](N(Cc2scc(-c3cccnc3)c2C)C(=O)c2sc3ccccc3c2Cl)CC1 [A′′]	< 10000 nM
CNC1CCC(N(Cc2cccc(I)c2)C(=O)c2sc3ccccc3c2Cl)CC1 (stereo not shown) [W]	< 10000 nM
CN[C@H]1CC[C@H](N(Cc2cc(-c3ccc(S(N)(=O)=O)s3)cs2)C(=O)c2sc3ccccc3c2Cl)CC1 [I′′]	< 500 nM
CN[C@H]1CC[C@H](N(Cc2cccc(-c3cccnc3)n2)C(=O)c2sc3ccccc3c2Cl)CC1 [N′′]	< 1000 nM
CN[C@H]1CC[C@H](N(Cc2ccc(OC)c(-c3ccc(C#N)cc3)c2)C(=O)c2sc3ccccc3c2C)CC1 [K′]	< 10000 nM
COc1ccc(CN(C(=O)c2sc3ccccc3c2Cl)C2CCC(N)CC2)cc1-c1nccs1 (stereo not shown) [Z]	< 10000 nM
CN[C@H]1CC[C@H](N(Cc2cccc(Oc3ccccc3)c2)C(=O)c2sc3ccccc3c2Cl)CC1 [C′′]	< 10000 nM
CN[C@H]1CC[C@H](N(Cc2ccc(OC)c(-c3ccc(C#N)cc3)c2)C(=O)c2sc3cc(F)ccc3c2Cl)CC1 [J′]	< 1000 nM
COc1ccc(CN(C(=O)c2sc3ccccc3c2C)C2CCC(N)CC2)cc1-c1ccc(C#N)cc1 (stereo not shown) [Compound E]	< 10000 nM
CNC1CCC(N(Cc2cccc(-c3cnccn3)c2)C(=O)c2sc3ccccc3c2Cl)CC1 (stereo not shown) [P]	< 1000 nM
CN[C@H]1CC[C@H](N(Cc2cc(-c3cccnc3)cs2)C(=O)c2sc3c(F)ccc(F)c3c2Cl)CC1 [V′′]	< 5 nM
CN[C@H]1CC[C@H](N(Cc2cccc(-c3nccs3)c2)C(=O)c2sc3ccccc3c2Cl)CC1 [B′′]	< 10000 nM
COc1ccc(-c2cc(CN(C(=O)c3sc4ccccc4c3Cl)C3CCC(N)CC3)ccc2OC)cc1 (stereo not shown) [K]	< 1000 nM
CN[C@H]1CC[C@H](N(Cc2cncc(-c3ccc(C#N)cc3)c2)C(=O)c2sc3ccccc3c2Cl)CC1 [S′′]	< 10000 nM
CN[C@H]1CC[C@H](N(Cc2cccc(-c3ccc(S(=O)(=O)n4c(C)ccc4C)s3)c2)C(=O)c2sc3ccccc3c2Cl)CC1 [R′′]	< 1000 nM
NC1CCC(N(Cc2cccc(-c3cccnc3)c2)C(=O)c2sc3ccccc3c2Cl)CC1 (stereo not shown) [Compound C]	< 1000 nM
CN[C@H]1CC[C@H](N(Cc2cccc(-c3ccc(S(=O)(=O)NC(C)(C)C)s3)c2)C(=O)c2sc3ccccc3c2Cl)CC1 [L′′]	< 1000 nM
CN[C@H]1CC[C@H](N(Cc2cccc(-c3ccc(S(=O)(=O)N(C)C)s3)c2)C(=O)c2sc3ccccc3c2Cl)CC1 [M′′]	< 1000 nM
CN[C@H]1CC[C@H](N(Cc2cccc(-c3ccc[nH]3)c2)C(=O)c2sc3ccccc3c2Cl)CC1 [D′′]	< 10000 nM

SMILES	EC50
CN[C@H]1CC[C@H](N(Cc2cncc(-c3cccnc3)c2)C(=O)c2sc3ccccc3c2Cl)CC1 [G′′′]	< 5000 nM
CN[C@H]1CC[C@H](N(Cc2cccc(-c3nccnc3C)c2)C(=O)c2sc3ccccc3c2Cl)CC1 [U′]	< 1000 nM
CN[C@H]1CC[C@H](N(Cc2ccnc(C(F)(F)F)c2)C(=O)c2sc3ccccc3c2Cl)CC1 [R′′′]	< 1000 nM
CN[C@H]1CC[C@H](N(Cc2ccnc(-c3cccnc3)c2)C(=O)c2sc3ccccc3c2Cl)CC1 [S′′′]	< 1000 nM
NC1CCC(N(Cc2ccc(-c3nccs3)cc2)C(=O)c2sc3ccccc3c2Cl)CC1 (stereo not shown) [F]	< 10000 nM
CN[C@H]1CC[C@H](N(Cc2ccc(OC)c(-c3ccc(C#N)cc3)c2)C(=O)c2sc3c(F)cc(F)cc3c2Cl)CC1 [F′′′]	< 50 nM
CN[C@H]1CC[C@H](N(Cc2cccc(-c3ccc(OC)nc3)c2)C(=O)c2sc3ccccc3c2Cl)CC1 [V′]	< 1000 nM
CN[C@H]1CC[C@H](N(Cc2cccc(C#N)c2)C(=O)c2sc3ccccc3c2Cl)CC1 [Z′]	< 10000 nM
CN[C@H]1CC[C@H](N(Cc2ccnc(-c3ccc(N)nc3)c2)C(=O)c2sc3ccccc3c2Cl)CC1 [Q′′′]	< 1000 nM
CN[C@H]1CC[C@H](N(Cc2ccnc(-c3ccc(S(N)(=O)=O)s3)c2)C(=O)c2sc3ccccc3c2Cl)CC1 [N′′′]	< 5000 nM
CN[C@H]1CC[C@H](N(Cc2ccc(OC)c(-c3ccc(C#N)cc3)c2)C(=O)c2sc3sccc3c2Cl)CC1 [L′′′]	< 5000 nM
CN[C@H]1CC[C@H](N(Cc2ccc(OC)c(-c3ccc(C#N)cc3)c2)C(=O)c2sc3cccc(F)c3c2Cl)CC1 [Y′′]	< 50 nM
Cc1ccc(-c2cccc(CN(C(=O)c3sc4ccccc4c3Cl)C3CCC(N)CC3)c2)cn1 (stereo not shown) [T]	< 10000 nM
CNC1CCC(N(Cc2ccc(C)c(-c3ccc(C#N)cc3)c2)C(=O)c2sc3ccccc3c2Cl)CC1 (stereo not shown) [Compound S]	< 1000 nM
CN[C@H]1CC[C@H](N(Cc2cc(-c3ccncc3)cs2)C(=O)c2sc3cccc(F)c3c2Cl)CC1 [A′′′]	< 50 nM
CN[C@H]1CC[C@H](N(Cc2cccc(N3CCOCC3)c2)C(=O)c2sc3ccccc3c2Cl)CC1 [W′]	< 10000 nM
CNC1CCC(N(Cc2cccc(-c3ccncc3)c2)C(=O)c2sc3ccccc3c2Cl)CC1 (stereo not shown) [M]	< 1000 nM
CN[C@H]1CC[C@H](N(Cc2cccc(N3CCC4(CC3)OCCO4)c2)C(=O)c2sc3ccccc3c2Cl)CC1 [Y′]	< 10000 nM
COc1ccc(CN(C(=O)c2sc3ccccc3c2Cl)C2CCC(N)CC2)cc1-c1cccnc1 (stereo not shown) [Y]	< 10000 nM
CN[C@H]1CC[C@H](N(Cc2cccc(Nc3ccccn3)c2)C(=O)c2sc3ccccc3c2Cl)CC1 [X′]	< 10000 nM
COc1ccc(CN(C(=O)c2sc3ccccc3c2Cl)C2CCC(O)CC2)cc1-c1ccc(C#N)cc1 (stereo not shown) [A′]	< 10000 nM
